The source of these data is BindingDB's records for doi:10.3109/14756366.2011.639016 (Gazi University, 2013).

One assay concerns the target Carbonic anhydrase 1 (Homo sapiens, UniProt P00915). Description: Esterase Activity Assay. Conditions: pH 7.4. On the procedure: (§1) The enzymatic reaction contained 1.4 mL 0.05 M Tris-SO4 buffer(pH 7.4), 1 mL 3 mM 4-nitrophenylacetate, 0.5 mL H2O and 0.1 mL enzyme solution (total volume, 3.0 mL). A reference measurement was obtained by preparing themixture without the enzyme solution. All measurements were made in triplicate.

For a further assay, the target named is Carbonic anhydrase 2 (Homo sapiens, UniProt P00918). The experiment in a line: Esterase Activity Assay. Conditions: pH 7.4. As to the method: as §1

Chain of Carbonic anhydrase 1 (P00915 whole entry): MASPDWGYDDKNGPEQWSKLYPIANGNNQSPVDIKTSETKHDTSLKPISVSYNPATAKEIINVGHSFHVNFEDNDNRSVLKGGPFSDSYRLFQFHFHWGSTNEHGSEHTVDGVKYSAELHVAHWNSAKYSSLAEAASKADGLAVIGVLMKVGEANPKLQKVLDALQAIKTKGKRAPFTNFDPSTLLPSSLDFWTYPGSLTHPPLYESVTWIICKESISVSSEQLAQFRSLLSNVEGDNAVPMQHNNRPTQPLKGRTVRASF

In general, IC50 refers to the point on the concentration scale where inhibition reaches its midpoint. The term Ki denotes the dissociation constant of the complex between target and ligand, obtained from inhibition or displacement. For the molecule `Cc1ccc(-c2c(C#N)c(N)nc3c2CCCCC3)s1` [CA inhibitor, 5c], the IC50 against Carbonic anhydrase 1 came out at 40 µM; at Carbonic anhydrase 2, 77 µM. Further, the Ki at Carbonic anhydrase 1 amounted to 30.6 µM; at Carbonic anhydrase 2, 73 µM.

As to `Cc1ccc(-c2c(C#N)c(N)nc3c2CCC3)o1` [CA inhibitor, 5d], at Carbonic anhydrase 1, half-maximal inhibition (IC50) was put at 33 µM and the Ki turned out to be 23.8 µM. On Carbonic anhydrase 2, the IC50 was determined as 56 µM and the affinity, expressed as Ki, was 41 µM.

As for `Cc1ccc(-c2c(C#N)c(N)nc3c2CCSC3)o1` [CA inhibitor, 5l], on Carbonic anhydrase 1, the concentration for half-maximal inhibition (IC50) amounted to 53 µM and the Ki stood at 50.3 µM.

Consider `Cc1ccc(-c2c(C#N)c(N)nc3c2CCCCC3)o1` [CA inhibitor, 5f], for which, on Carbonic anhydrase 1, the IC50 came to 53 µM and the affinity, expressed as Ki, was 58.5 µM.

Turning to `Cc1ccc(-c2c(C#N)c(N)nc3c2CCCC3)s1` [2-azanyl-4-(5-methylthiophen-2-yl)-5,6,7,8-tetrahydroquinoline-3-carbonitrile], at Carbonic anhydrase 1, the IC50 worked out at 34 µM and the Ki came to 31 µM. Further, at Carbonic anhydrase 2, the IC50 worked out at 99 µM and the inhibitory constant (Ki) was 182 µM.

`Cc1ccc(-c2c(C#N)c(N)nc3c2CCSC3)s1` [CA inhibitor, 5i]: at Carbonic anhydrase 1, the IC50 was determined as 55 µM and affinity was put at a Ki of 38.4 µM.

`Cc1ccc(-c2c(C#N)c(N)nc3c2CCCC3)o1` [CA inhibitor, 5e]: on Carbonic anhydrase 1, inhibition was half-maximal at 48 µM (IC50) and the inhibitory constant (Ki) amounted to 89 µM.
